Test results reported in PMC4184702 (Pharmacology Research & Perspectives, 2014).
Entries after “also recorded” stand apart in the source; their conditions may differ.

Columns and labels:
5-HT7 = biological target: T1, 5-HT7 (Homo sapiens, UniProt P34969); assay: PDSP primary binding, 5-HT7; conditions: n = 4, read-out: Inhibition (primary binding competition efficacy), 5-HT7
T1 construct: purchased NIMH Psychoactive Drug Screening Program (PDSP)
Experimental: (§1) For experimental details, please refer to the Psychoactive Drug Screening Program (PDSP) web site http://pdsp.med.unc.edu/.
(§2) ^a The default concentration for primary binding experiments is 10 µM (n = 4). ^b Negative inhibition represents a stimulation of binding. ^c BZPR: Benzodiazepine Receptors (rat brain site). ^d DOR: Delta Opioid Receptor; KOR: Kappa Opioid Receptor; MOR: Mu Opioid Receptor. ^e DAT: Dopamine Transporter; NET: Norepinephrine Transporter; SERT: Serotonin Transporter. ^f NMDA: N-methyl-D-aspartate receptor.

GABAA = assay: PDSP primary binding, GABAA; conditions: 10 µM, n = 4
Experimental: as §1, §2

[1] = biological target: T2, NET: Norepinephrine Transporter (Homo sapiens, UniProt P23975); assay: PDSP primary binding, NET; conditions: n = 4, read-out: Inhibition (primary binding competition efficacy), NET
T2 construct: purchased NIMH Psychoactive Drug Screening Program (PDSP)
T2 sequence (P23975 whole entry): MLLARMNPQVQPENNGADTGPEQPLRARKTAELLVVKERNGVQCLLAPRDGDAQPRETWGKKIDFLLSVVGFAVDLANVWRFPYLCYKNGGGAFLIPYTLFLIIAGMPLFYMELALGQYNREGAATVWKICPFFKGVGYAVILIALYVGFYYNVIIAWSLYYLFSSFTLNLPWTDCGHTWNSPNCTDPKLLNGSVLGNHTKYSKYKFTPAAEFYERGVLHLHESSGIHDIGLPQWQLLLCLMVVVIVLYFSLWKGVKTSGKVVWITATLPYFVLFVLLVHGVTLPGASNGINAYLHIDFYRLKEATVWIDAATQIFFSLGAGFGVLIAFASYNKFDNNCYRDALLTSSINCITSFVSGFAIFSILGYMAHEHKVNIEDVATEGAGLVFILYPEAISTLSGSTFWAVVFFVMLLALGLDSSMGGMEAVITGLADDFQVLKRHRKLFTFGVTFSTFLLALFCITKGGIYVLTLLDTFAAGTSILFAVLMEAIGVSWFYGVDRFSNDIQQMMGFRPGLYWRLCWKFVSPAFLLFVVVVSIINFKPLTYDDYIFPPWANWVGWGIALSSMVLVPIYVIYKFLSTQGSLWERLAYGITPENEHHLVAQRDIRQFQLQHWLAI
Experimental: as §1, §2

[2] = biological target: T3, DOR: Delta Opioid Receptor (Homo sapiens, UniProt P41143); assay: PDSP primary binding, DOR; conditions: n = 4, read-out: Inhibition (primary binding competition efficacy), DOR
T3 construct: purchased NIMH Psychoactive Drug Screening Program (PDSP)
T3 sequence (P41143 whole entry): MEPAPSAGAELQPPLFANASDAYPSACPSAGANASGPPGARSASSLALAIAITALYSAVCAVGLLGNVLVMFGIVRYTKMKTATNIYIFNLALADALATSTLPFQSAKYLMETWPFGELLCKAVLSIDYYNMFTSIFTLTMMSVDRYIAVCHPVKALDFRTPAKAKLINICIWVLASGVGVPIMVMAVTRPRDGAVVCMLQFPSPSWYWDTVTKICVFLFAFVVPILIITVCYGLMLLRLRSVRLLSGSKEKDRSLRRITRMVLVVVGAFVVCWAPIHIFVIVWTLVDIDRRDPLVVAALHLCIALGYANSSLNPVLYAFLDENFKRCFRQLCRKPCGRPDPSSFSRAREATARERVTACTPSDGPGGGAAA
Experimental: as §1, §2

M1 muscarinic receptor = biological target: T4, M1 muscarinic receptor (Homo sapiens, UniProt P11229); assay: PDSP primary binding, M1; conditions: n = 4, read-out: Inhibition (primary binding competition efficacy), M1
T4 construct: purchased NIMH Psychoactive Drug Screening Program (PDSP)
T4 sequence (P11229 whole entry): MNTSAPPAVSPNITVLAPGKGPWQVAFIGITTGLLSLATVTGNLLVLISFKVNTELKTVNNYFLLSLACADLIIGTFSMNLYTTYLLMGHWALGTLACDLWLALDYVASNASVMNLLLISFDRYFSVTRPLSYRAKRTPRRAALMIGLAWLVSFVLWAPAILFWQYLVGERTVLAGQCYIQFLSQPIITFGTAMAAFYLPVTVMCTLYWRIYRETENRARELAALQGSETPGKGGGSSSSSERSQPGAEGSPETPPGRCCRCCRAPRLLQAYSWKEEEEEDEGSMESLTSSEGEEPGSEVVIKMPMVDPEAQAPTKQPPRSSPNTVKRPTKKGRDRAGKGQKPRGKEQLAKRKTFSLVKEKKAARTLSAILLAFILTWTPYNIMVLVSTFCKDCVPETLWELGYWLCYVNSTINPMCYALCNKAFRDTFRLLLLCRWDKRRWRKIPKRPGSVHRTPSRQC
Experimental: as §1, §2

σ 2 sigma receptor = assay: PDSP primary binding, σ 2; conditions: 10 µM, n = 4
Experimental: as §1, §2

[3] = biological target: T5, human muscle-type α1β1γδ-nAChR (Homo sapiens, UniProt P02708+P07510+Q07001); assay: 86Rb+ ion efflux assay, TE671/RD cells; assay type: cell-based; conditions: 86Rb+ ion flux assay
T5 construct: TE671/RD naturally expresses human muscle-type α1*-nAChRs; endogenous in cells; host or cells: TE671/RD human clonal cell line
T5 sequence (P02708 21-457): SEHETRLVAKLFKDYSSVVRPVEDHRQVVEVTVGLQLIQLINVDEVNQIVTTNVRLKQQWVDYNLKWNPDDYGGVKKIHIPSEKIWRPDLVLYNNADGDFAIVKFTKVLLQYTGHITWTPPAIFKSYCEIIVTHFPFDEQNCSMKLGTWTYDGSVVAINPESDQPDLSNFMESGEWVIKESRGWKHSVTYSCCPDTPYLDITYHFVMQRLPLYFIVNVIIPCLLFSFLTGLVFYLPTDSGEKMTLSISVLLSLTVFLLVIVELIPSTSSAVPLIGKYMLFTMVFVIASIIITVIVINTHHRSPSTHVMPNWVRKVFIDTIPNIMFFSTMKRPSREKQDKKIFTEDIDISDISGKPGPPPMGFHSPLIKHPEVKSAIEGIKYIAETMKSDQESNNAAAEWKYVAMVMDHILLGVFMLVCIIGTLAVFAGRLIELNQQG
T5 sequence (P11230 24-501 partner): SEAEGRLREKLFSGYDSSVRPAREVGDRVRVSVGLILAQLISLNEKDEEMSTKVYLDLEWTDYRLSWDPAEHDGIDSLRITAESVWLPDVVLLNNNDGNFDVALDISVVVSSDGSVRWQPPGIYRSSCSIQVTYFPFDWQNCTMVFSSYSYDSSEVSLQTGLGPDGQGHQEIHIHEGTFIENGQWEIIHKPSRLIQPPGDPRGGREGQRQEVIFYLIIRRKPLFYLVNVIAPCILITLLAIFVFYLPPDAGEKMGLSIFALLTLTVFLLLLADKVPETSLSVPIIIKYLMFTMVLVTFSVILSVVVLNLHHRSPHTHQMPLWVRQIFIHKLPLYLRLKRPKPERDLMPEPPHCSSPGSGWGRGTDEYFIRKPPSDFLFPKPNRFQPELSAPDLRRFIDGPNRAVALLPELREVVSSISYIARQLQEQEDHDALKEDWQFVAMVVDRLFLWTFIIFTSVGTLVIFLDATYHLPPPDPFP
T5 sequence (P07510 23-517): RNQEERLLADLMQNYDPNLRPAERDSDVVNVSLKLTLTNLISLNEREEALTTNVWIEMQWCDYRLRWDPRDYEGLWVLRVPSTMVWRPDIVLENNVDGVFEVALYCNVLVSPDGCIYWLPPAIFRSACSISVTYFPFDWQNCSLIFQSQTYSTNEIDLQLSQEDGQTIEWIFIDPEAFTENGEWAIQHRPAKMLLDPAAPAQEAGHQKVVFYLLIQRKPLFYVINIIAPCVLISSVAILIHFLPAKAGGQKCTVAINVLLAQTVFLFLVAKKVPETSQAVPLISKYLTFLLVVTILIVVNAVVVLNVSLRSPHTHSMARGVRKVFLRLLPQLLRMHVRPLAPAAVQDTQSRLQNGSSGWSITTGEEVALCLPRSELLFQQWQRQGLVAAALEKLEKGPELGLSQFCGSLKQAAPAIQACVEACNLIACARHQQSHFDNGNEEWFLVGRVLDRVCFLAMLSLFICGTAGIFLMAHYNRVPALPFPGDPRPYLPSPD
T5 sequence (Q07001 22-517): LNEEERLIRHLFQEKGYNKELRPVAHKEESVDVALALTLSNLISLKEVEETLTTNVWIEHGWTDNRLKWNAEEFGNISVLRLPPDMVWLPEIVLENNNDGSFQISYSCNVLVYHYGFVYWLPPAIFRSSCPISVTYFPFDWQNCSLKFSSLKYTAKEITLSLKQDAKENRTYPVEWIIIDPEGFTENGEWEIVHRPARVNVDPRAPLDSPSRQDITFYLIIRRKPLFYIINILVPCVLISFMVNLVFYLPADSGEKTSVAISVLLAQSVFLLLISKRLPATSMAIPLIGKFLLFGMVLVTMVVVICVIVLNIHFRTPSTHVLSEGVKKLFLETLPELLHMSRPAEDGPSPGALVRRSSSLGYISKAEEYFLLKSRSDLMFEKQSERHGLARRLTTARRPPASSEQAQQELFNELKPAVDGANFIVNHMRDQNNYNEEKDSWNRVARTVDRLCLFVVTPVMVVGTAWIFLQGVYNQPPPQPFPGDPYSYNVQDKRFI
Text: Cell lines naturally or heterologously expressing specific, functional, human nAChR subtypes were used. The human clonal cell line TE671/RD naturally expresses human muscle-type α1*-nAChRs, containing α1, β1, γ, and δ subunits, with function detectable using ^86Rb^+ efflux assays. […] These cells heterologously express human nAChR chimeric (α6/3) subunits (wherein the extracellular, N-terminal, ligand-binding domain of the human nAChR α6 subunit replaces that domain in the nAChR α3 subunit) along with human β2 and β3 subunits. […] Cells were passaged once a week by splitting just-confluent cultures 1/300 (TE671/RD), 1/10 (SH-SY5Y), or 1/40 (transfected SH-EP1) in serum-supplemented medium to maintain log-phase growth.
One newer modification on these techniques involves low temperature incubation before assays to increase the surface expression of high sensitivity (HS) relative to low sensitivity (LS) α4β2 nAChRs and to enhance surface expression of (α6/3)β2β3-nAChRs. […] In brief, this allows us to determine efficacies of test compounds at LS and HS α4β2 nAChRs, respectively, as the ordinate values of the linear regressions at abscissa values of 0% and 100% of sazetidine-A efficacy.
Results are normalized to responses to a fully efficacious concentration of carbamylcholine (see Materials and Methods for details). […]

human α7-nAChRs = biological target: T6, human α7-nAChRs (Homo sapiens, UniProt P36544); assay: Whole-cell current recording, SH-EP1-hα7 cells; assay type: cell-based; conditions: 1 μmol/L
T6 construct: expressed in transfected cells; host or cells: SH-EP1 human epithelial cells (SH-EP1-hα7)
T6 sequence (P36544 23-502): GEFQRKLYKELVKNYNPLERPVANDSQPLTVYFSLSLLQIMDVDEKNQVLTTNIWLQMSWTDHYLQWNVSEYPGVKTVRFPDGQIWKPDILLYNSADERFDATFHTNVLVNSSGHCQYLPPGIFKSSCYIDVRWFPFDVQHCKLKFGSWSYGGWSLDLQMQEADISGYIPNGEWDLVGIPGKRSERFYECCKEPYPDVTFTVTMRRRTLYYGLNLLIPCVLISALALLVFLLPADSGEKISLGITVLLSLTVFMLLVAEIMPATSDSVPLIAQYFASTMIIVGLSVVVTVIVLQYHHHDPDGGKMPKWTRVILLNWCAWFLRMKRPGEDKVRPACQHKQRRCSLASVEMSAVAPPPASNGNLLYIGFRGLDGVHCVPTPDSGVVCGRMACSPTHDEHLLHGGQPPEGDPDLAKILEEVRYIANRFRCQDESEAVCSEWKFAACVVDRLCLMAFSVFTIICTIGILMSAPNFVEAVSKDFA
Experimental: Glass microelectrodes made with 3–5 MΩ resistance between pipette and extracellular solutions were used to obtain >1 GΩ seals on the cell surface just prior to conversion into standard whole-cell current recording mode by applying suction to the pipette. After allowing exchange between the pipette solution and the cytosol for 5 10 min, cells with attached pipettes were lifted gently from the bottom of the culture dish via micromanipulation of the pipette to improve kinetics of solution exchange around the cell. Access resistance (Ra) was measured and accepted if it was less than 20 MΩ. Pipette and whole-cell capacitance were both minimized, and series resistance was compensated routinely to 80%. Cells were voltage-clamped at −60 mV, and inward currents induced by indicated nicotinic agonists at the specified concentrations were measured (200B amplifier; Molecular Devices, Sunnyvale, CA). […] Data acquisition and analyses were conducted using pClamp9.2 (Molecular Devices), and results were plotted by using Origin 5.0 (OriginLab Corp., North Hampton, MA). All experiments were performed at room temperature (22 ± 1°C).
The external solution for SH-EP1 cell recording contained 120 mmol/L NaCl, 5 mmol/L KCl, 2 mmol/L MgCl2, 2 mmol/L CaCl2, 25 mmol/L D-glucose, and 10 mmol/L HEPES<< HEPES >>, pH 7.4 (Tris-base). For conventional whole-cell recording, the pipette solution contained 110 mmol/L Tris-phosphate dibasic, 28 mmol/L Tris-base, 11 mmol/L EGTA<< EGTA >>, 2 mmol/L MgCl2, 0.5 mmol/L CaCl2, and 4 mmol/L Na-ATP at pH 7.3. Drugs (standard compounds were obtained from Sigma Chemical, St. Louis, MO) were delivered to the recorded cell by a computer-controlled perfusion system (SF-77B Perfusion Fast Step, Warner Instruments Incorporated, A Harvard Bioscience Company, Holliston, MA), allowing the recorded cell can be completely surrounded by the applied drug within 20 msec. The interval between drug applications (2 min) was optimized specifically to ensure stability of nAChR responsiveness (without functional rundown).

[4] = Metabolic stability, liver microsomes, human; assay type: in vitro ADME; conditions: 1.0E-06 M, 1 h
[5] = Metabolic stability, cryopreserved hepatocytes, human; assay type: in vitro ADME; conditions: 1.0E-06 M, 2 h
strain TA100 = assay: Ames test, strain TA100; assay type: cell-based
C57/BL6J mice = assay: Preliminary acute maximum tolerated dose study; assay type: in vivo, mouse
[6] = biological target: β2-containing nAChRs (α2β2, α3β2, α4β2, and α4β2*); design: method as in Yu et al. [2012]; conditions: ref Yu et al. [2012], read-out: Ki values range at β2-containing nAChRs; cited from earlier work

T1 sequence (P34969 whole entry): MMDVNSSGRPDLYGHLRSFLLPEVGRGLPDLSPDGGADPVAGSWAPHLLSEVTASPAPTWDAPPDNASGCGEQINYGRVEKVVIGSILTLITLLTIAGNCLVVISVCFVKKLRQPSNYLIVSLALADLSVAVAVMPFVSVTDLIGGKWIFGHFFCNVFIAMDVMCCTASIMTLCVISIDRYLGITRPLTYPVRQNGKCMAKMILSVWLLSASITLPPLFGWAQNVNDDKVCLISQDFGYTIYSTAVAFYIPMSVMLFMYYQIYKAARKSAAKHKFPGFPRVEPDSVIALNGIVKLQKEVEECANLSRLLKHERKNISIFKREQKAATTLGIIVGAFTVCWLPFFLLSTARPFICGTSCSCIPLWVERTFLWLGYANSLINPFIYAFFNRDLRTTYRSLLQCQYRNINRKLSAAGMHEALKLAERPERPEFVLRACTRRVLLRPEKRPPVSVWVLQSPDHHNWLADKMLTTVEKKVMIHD

## OCCc1cc(-c2cncc(OC[C@@H]3CCN3)c2)on1 [LF-3-88, 2-[5-[5-(2(S)-azetidinylmethoxyl)-3-pyridyl]-3-isoxazolyl]ethanol]
5-HT7
  inhibition at 10 µM: 1.1%
GABAA
  Inhibition (primary binding competition efficacy), GABAA: -7.6%
[1]
  inhibition at 10 µM: 0.4%
[2]
  inhibition at 10 µM: 5.9%
M1 muscarinic receptor
  inhibition at 10 µM: 8.8%
σ 2 sigma receptor
  Inhibition (primary binding competition efficacy), σ 2: 11.5%
[3]
  agonist or antagonist activity at muscle-type α1β1γδ-nAChRs: no significant agonist or antagonist activity
Human α7-nAChRs
  agonist activity at α7-nAChRs (whole-cell): no agonist activity
Human α7-nAChRs; 10 mmol/L choline
  effect of coapplication with choline at α7-nAChRs (whole-cell): no effect
Human α7-nAChRs; 2-min pretreatment
  inhibition of activation by 10 mmol/L choline at α7-nAChRs (whole-cell): slightly inhibit; also recorded: only weakly
[4]
  Remaining (metabolic stability): 89%
[5]
  Remaining (metabolic stability): 92%
Strain TA100; strain TA100 + S9, 1.0E-04 M
  Ames test Result: Negative
Strain TA100; strain TA100 + S9, 1.0E-05 M
  Ames test Result: Negative
Strain TA100; strain TA100 + S9, 5.0E-05 M
  Ames test Result: Negative
Strain TA100; strain TA100 + S9, 5.0E-06 M
  Ames test Result: Negative
Strain TA100; strain TA100 – S9, 1.0E-04 M
  Ames test Result: Negative
Strain TA100; strain TA100 – S9, 1.0E-05 M
  Ames test Result: Negative
Strain TA100; strain TA100 – S9, 5.0E-05 M
  Ames test Result: Negative
Strain TA100; strain TA100 – S9, 5.0E-06 M
  Ames test Result: Negative
Strain TA100; with or without S9, 5, 10, 50, or 100 μmol/L
  mutagenic potential (Ames), TA100: negative
C57/BL6J mice; acute
  dose above which temperature and active behaviors temporarily decreased: above 100 mg/kg
C57/BL6J mice; up to 300 mg/kg
  serious toxic side effects or mortality: no serious toxic side effects or mortality
[6]
  Ki: 0.6 to 15.4 nM
